Values quoted from earlier work as cited in US5462964A, “Dipeptide boronic acid inhibitors of trypsin-like enzymes” (The Du Pont Merck Pharmaceutical Company, priority 1993, dated 1995).

Assays:
[1] = biological target: T1, thrombin (Homo sapiens, UniProt P00734); details: Kettner and Shaw Thromb. Res. 14, 969 (1979)
[2] = test system: blood coagulation; details: both in vitro and in vivo; EP 293 881
[3] = biological target: chymotrypsin (Bos taurus, UniProt P00766); details: Matteson et al. J. Am. Chem. Soc. 103, 5241 (1981)
[4] = biological target: T1, thrombin; details: reversible inhibitor of thrombin; literature / EP 293 881

**Q.** Which “inhibitor of human thrombin” value [1] does the source give for `CC(=O)NC(Cc1ccccc1)C(=O)N1CCCC1C(=O)NC(CCCNC(=N)N)C(=O)CCl` [Ac-D-Phe-Pro-ArgCH2 Cl] here?
**A.** The value was “potent and selective irreversible inhibitor”.

**Q.** Which “inhibition of blood coagulation” value [2] does the source give for `CC(=O)N[C@H](Cc1ccccc1)C(=O)N1CCC[C@H]1C(=O)N[C@@H](CCCN=C(N)N)B(O)O` [Ac-D-Phe-Pro-boroArgOH] here?
**A.** Its value is “highly effective”.

**Q.** For `CC(=O)N[C@@H](Cc1ccccc1)B(O)O` [Ac-boroPhe-OH, (R)-1-acetamido-2-phenylethane boronic acid], which Ki [3] is on record?
**A.** The Ki was 4000 nM.

**Q.** With `CC(=O)N[C@H](Cc1ccccc1)C(=O)N1CCC[C@H]1C(=O)N[C@H](C=O)CCCNC(=N)N` [Ac-D-Phe-Pro-Arg-H] as the compound, how does the Ki [4] read?
**A.** The Ki was 75 nM.
